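Values below derive from 48-hour exposures of cells grown in 96-well plates, with endpoints linearly interpolated between the two concentrations bracketing the appropriate inhibition level. At the TGI there is no net growth.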
What was measured:
Experiment in all cases: NCI tumour cell line growth inhibition, 48 h
RXF-631 renal = system: RXF-631 renal
LXFL 529 NSCLC = system: LXFL 529 NSCLC
HCT-15 colon = system: HCT-15 colon
SK-MEL-5 melanoma = system: SK-MEL-5 melanoma
SF-295 CNS = system: SF-295 CNS
CCRF-CEM leukemia = system: CCRF-CEM leukemia
KM20L2 colon = system: KM20L2 colon
OVCAR-5 ovarian = system: OVCAR-5 ovarian
SNB-19 CNS = system: SNB-19 CNS
RXF 393 renal = system: RXF 393 renal
MALME-3M melanoma = system: MALME-3M melanoma
DLD-1 colon = system: DLD-1 colon
HCT-116 colon = system: HCT-116 colon
EKVX NSCLC = system: EKVX NSCLC
M14 melanoma = system: M14 melanoma
MOLT-4 leukemia = system: MOLT-4 leukemia
SF-539 CNS = system: SF-539 CNS
SN12C renal = system: SN12C renal
LOX IMVI melanoma = system: LOX IMVI melanoma
UO-31 renal = system: UO-31 renal
KM12 colon = system: KM12 colon
IGROV1 ovarian = system: IGROV1 ovarian
HCC-2998 colon = system: HCC-2998 colon
SR leukemia = system: SR leukemia
SF-268 CNS = system: SF-268 CNS
RPMI-8226 leukemia = system: RPMI-8226 leukemia
HL-60(TB) leukemia = system: HL-60(TB) leukemia
OVCAR-8 ovarian = system: OVCAR-8 ovarian
SW-620 colon = system: SW-620 colon
NCI-H460 lung = system: NCI-H460 lung
HT29 colon = system: HT29 colon
ACHN renal = system: ACHN renal
A498 renal = system: A498 renal
NCI-H522 lung = system: NCI-H522 lung
A549 NSCLC = system: A549 NSCLC
NCI-H23 lung = system: NCI-H23 lung
HOP-92 NSCLC = system: HOP-92 NSCLC
SK-MEL-2 melanoma = system: SK-MEL-2 melanoma
K-562 leukemia = system: K-562 leukemia
U251 CNS = system: U251 CNS
TK-10 renal = system: TK-10 renal
SK-MEL-28 melanoma = system: SK-MEL-28 melanoma
M19-MEL melanoma = system: M19-MEL melanoma
SK-OV-3 ovarian = system: SK-OV-3 ovarian
786-0 renal = system: 786-0 renal
XF 498 CNS = system: XF 498 CNS
HOP-18 NSCLC = system: HOP-18 NSCLC
UACC-62 melanoma = system: UACC-62 melanoma
UACC-257 melanoma = system: UACC-257 melanoma
SNB-75 CNS = system: SNB-75 CNS
NCI-H226 lung = system: NCI-H226 lung
OVCAR-3 ovarian = system: OVCAR-3 ovarian
COLO 205 colon = system: COLO 205 colon
DMS 114 small cell lung = system: DMS 114 small cell lung
CAKI-1 renal = system: CAKI-1 renal
HOP-62 NSCLC = system: HOP-62 NSCLC
OVCAR-4 ovarian = system: OVCAR-4 ovarian
DU-145 prostate = system: DU-145 prostate
DMS 273 small cell lung = system: DMS 273 small cell lung
SNB-78 CNS = system: SNB-78 CNS

Measured: TGI

COc1cc2c[n+]3ccc4cc(OC)c(OC)cc4c3cc2cc1O
not listed: NCI-H226 lung | OVCAR-3 ovarian | COLO 205 colon | DMS 114 small cell lung | CAKI-1 renal | HOP-62 NSCLC | OVCAR-4 ovarian | DU-145 prostate | DMS 273 small cell lung | SNB-78 CNS
> 100 µM: all other assays above

CON(C)C(=O)CCCO
not listed: OVCAR-5 ovarian | LOX IMVI melanoma | HCC-2998 colon | A498 renal | SK-OV-3 ovarian | DU-145 prostate | DMS 273 small cell lung | SNB-78 CNS
> 100 µM: all other assays above

CCOC(=O)C=C1CCC2(CC1)OCCO2
not listed: EKVX NSCLC | DMS 114 small cell lung | HOP-62 NSCLC | DMS 273 small cell lung | SNB-78 CNS
> 100 µM: all other assays above

O=c1c2ccccc2nc(/C=C(\O)c2ccccc2)n1-c1ccccc1Cl
not listed: RPMI-8226 leukemia | XF 498 CNS | DU-145 prostate
> 100 µM: all other assays above

C=CCNC(=O)/C=C\C(=O)O
not listed: RPMI-8226 leukemia | XF 498 CNS | DU-145 prostate
> 100 µM: all other assays above

Source: PubChem BioAssay (NCI)
